In US20130252286A1, “TRANSFORMANT OF YEAST OF GENUS SCHIZOSACCHAROMYCES, AND METHOD FOR PRODUCING SAME” (ASAHI GLASS COMPANY, LIMITED, priority 2010, published 2013):

B1: AaBGL1: β-glucosidase 1 of Aspergillus aculeatus F-50 secreted by S. pombe ASP3326 strain, crude enzyme after ammonium sulfate and ultrafiltration (protein, listed as Aspergillus aculeatus)
chain: DELAFSPPFYPSPWANGQGEWAEAYQRAVAIVSQMTLDEKVNLTTGTGWELEKCVGQTGGVPRLNIGGMCLQDSPLGIRDSDYNSAFPAGVNVAATWDKNLAYLRGQAMGQEFSDKGIDVQLGPAAGPLGRSPDGGRNWEGFSPDPALTGVLFAETIKGIQDAGVVATAKHYILNEQEHFRQVAEAAGYGFNISDTISSNVDDKTIHEMYLWPFADAVRAGVGAIMCSYNQINNSYGCQNSYTLNKLLKAELGFQGFVMSDWGAHHSGVGSALAGLDMSMPGDITFDSATSFWGTNLTIAVLNGTVPQWRVDDMAVRIMAAYYKVGRDRLYQPPNFSSWTRDEYGFKYFYPQEGPYEKVNHFVNVQRNHSEVIRKLGADSTVLLKNNNALPLTGKERKVAILGEDAGSNSYGANGCSDRGCDNGTLAMAWGSGTAEFPYLVTPEQAIQAEVLKHKGSVYAITDNWALSQVETLAKQASVSLVFVNSDAGEGYISVDGNEGDRNNLTLWKNGDNLIKAAANNCNNTIVVIHSVGPVLVDEWYDHPNVTAILWAGLPGQESGNSLADVLYGRVNPGAKSPFTWGKTREAYGDYLVRELNNGNGAPQDDFSEGVFIDYRGFDKRNETPIYEFGHGLSYTTFNYSGLHIQVLNASSNAQVATETGAAPTFGQVGNASDYVYPEGLTRISKFIYPWLNSTDLKASSGDPYYGVDTAEHVPEGATDGSPQPVLPAGGGSGGNPRLYDELIRVSVTVKNTGRVAGDAVPQLYVSLGGPNEPKVVLRKFDRLTLKPSEETVWTTTLTRRDLSNWDVAAQDWVITSYPKKVHVGSSSRQLPLHAALPKVQ

How the values were obtained:
crude AaBGL1 [1] = molecular target: T1, crude AaBGL1 (Aspergillus aculeatus, UniProt P48825); experiment: Substrate specificity; assay type: biochemical; design: P3 secretion signal (N, cleaved yes); made in house; host or cells: Schizosaccharomyces pombe ASP3326 strain (transformed with pSL6P3AaBGL1); culture supernatant, ammonium sulfate treatment and ultrafiltration, crude enzyme; conditions: 0.5% (w/v) ICOS, 0.5% (w/v) cellobiose, 1 mM pNPG, 1 mM pNP-cellobiose; for Specific activity: pH 4.5, 37° C., 10 minutes; for Relative activity: relative to cellobiose
Description: Measured in accordance with the activity measurement method by using various substrates. The specific activities and relative activities of the enzyme to each of 0.5% (w/v) ICOS, 0.5% (w/v) cellobiose, 1 mM pNPG, and 1 mM pNP-cellobiose are shown in Table 6.
To 100 μl of 2 mM p-nitrophenyl-β-D-cellobioside (hereinafter referred to as pNP-cellobiose), 10 μl of 1 M sodium acetate buffer solution (pH 4.5) and 40 μl of water were added, followed by addition of 50 μl of the diluted enzyme sample to cultivate for 10 minutes at 37° C. 100 μl of the reaction mixture was mixed with 100 μl of 2% sodium carbonate solution to terminate reaction, and then the amount of liberated p-nitrophenol was colorimetrically measured at a wavelength of 450 nm.
The amount of enzyme that produces 1 μmol of p-nitrophenol per minute was defined as 1 U.
(§1) To 100 μl of 1% cellobiose solution, 10 μl of 1M sodium acetate buffer solution (pH 4.5) was added, followed by addition of 90 μl of the diluted enzyme sample to cultivate for 10 minutes at 37° C. 50 μl of 1N HCl was added to terminate reaction, and then 50 μl of a neutralizing solution comprised of 1M Tris solution:2N sodium hydroxide solution in a ratio of 4:1 was added for neutralization to measure the amount of glucose in the mixture by using glucostat method (Glucose kit, Glucose CII-Test Wako, manufactured by Wako Pure Chemical Industries).
The amount of enzyme that produces 1 μmol of glucose per minute was defined as 1 U.
as §1, with “insoluble cellooligosaccharide (hereinafter referred to as ICOS)” for “cellobiose”

crude AaBGL1 [2] = molecular target: T1, crude AaBGL1; experiment: Inhibition by various sugar; assay type: biochemical; design: P3 secretion signal (N, cleaved yes); made in house; culture supernatant, ammonium sulfate treatment and ultrafiltration, crude enzyme; conditions: 1 mM pNPG; for inhibition of crude AaBGL1 by the sugar (in words): 0.1 to 10 mM sugar
Description: To 10 μl of 20 mM p-nitrophenyl-β-D-glucoside (hereinafter abbreviated as pNPG), 10 μl of 1M sodium acetate buffer solution (pH 4.5) and 130 μl of water were added, and then 50 μl of the diluted enzyme sample was introduced for reacting them at 37° C. for 10 minutes. 100 μl of the reaction mixture was mixed with 100 μl of 2% sodium carbonate solution to terminate reaction, and then the amount of liberated p-nitrophenol was colorimetrically measured at a wavelength of 450 nm.
By using 1 mM pNPG containing various sugar (0.1 mM, 1.0 mM, 10 mM) as a substrate, the enzyme was reacted in accordance with the activity measurement method. The numerical values shown in Table 5 indicate the ratio (%) of the measured enzymatic activity to the enzymatic activity under a condition where no sugar is contained.

Glucose inhibition test = assay type: biochemical; conditions: 1 mM pNPG
Description: With regard to glucose inhibition, the crude enzyme obtained in Test Example 6 was compared with a commercially available β-glucosidase Novozyme 188 (manufactured by Novozymes). The glucose inhibition activity was measured in accordance with the activity measurement method by using 1 mM pNPG as a substrate and adding glucose to the reaction mixture in a concentration of from 0 to 100 mM. The reaction temperature was 37° C., the pH was 4.5, and the reaction time was 10 minutes. The other reaction conditions were the same as in the activity measurement method described in Test Example 4.
With regard to the each culture supernatant, the glucose inhibition activity was measured in accordance with the activity measurement method, by using 1 mM pNPG as a substrate and adding from 0 to 100 mM of glucose to the reaction mixture.

[3] = Optimal temperature test of the crude enzyme; assay type: biochemical; conditions: 1 mM pNPG, 50 mM acetate buffer pH 4.5, 10 minutes
Description: By using 1 mM pNPG as a substrate and 50 mM acetate buffer solution (pH 4.5), the enzyme was reacted for 10 minutes at each temperature. […] (FIG. 3).

Thermostability test = assay type: physicochemical; conditions: crude enzyme, treated at each temperature for 10 minutes
Description: The enzyme was treated at each temperature for 10 minutes, and then reacted by using 1 mM pNPG as a substrate and 50 mM acetate buffer solution (pH 4.5). […] (FIG. 5).
With regard to the each culture supernatant, the thermostability test was carried out in accordance with the thermostability measurement method described in Test Example 7 at a temperature of from 50 to 75° C.
With regard to the each purified sample, the thermostability test was carried out in accordance with the thermostability measurement method described in Test Example 7 at a temperature of from 50 to 75° C.

Molecule | inhibition of crude AaBGL1 by the sugar (in words) (crude AaBGL1 [2]) | ratio of enzymatic activity to activity without sugar (crude AaBGL1 [2]; sugar concentration 0.1 mM) [%] | ratio of enzymatic activity to activity without sugar (crude AaBGL1 [2]; sugar concentration 1.0 mM) [%] | ratio of enzymatic activity to activity without sugar (crude AaBGL1 [2]; sugar concentration 10 mM) [%] | further results
O=C[C@H](O)[C@@H](O)[C@H](O[C@@H]1O[C@H](CO)[C@@H](O)[C@H](O)[C@H]1O)[C@H](O)CO [Cellobiose] |  |  |  |  | Specific activity (crude AaBGL1 [1]): 42.1 U/mg; Relative activity (crude AaBGL1 [1]): 100%
O=C(CO)[C@@H](O)[C@H](O)[C@H](O)CO [Fructose] | not substantially inhibited | 99 | 106 | 115 | 
O=C[C@H](O)[C@@H](O)[C@@H](O)[C@H](O)CO [Galactose] | not substantially inhibited | 97 | 98 | 101 | 
OC[C@H]1O[C@@H](O[C@H]2[C@H](O)[C@@H](O)C(O)O[C@@H]2CO)[C@H](O)[C@@H](O)[C@H]1O (stereo partly drawn) [Lactose] | not substantially inhibited | 99 | 100 | 100 | 
OC[C@H]1O[C@H](O[C@H]2[C@H](O)[C@@H](O)[C@H](O)O[C@@H]2CO)[C@H](O)[C@@H](O)[C@@H]1O [Maltose] | inhibited | 99 | 93 | 68 | 
OC[C@@H](O)[C@@H](O)[C@H](O)[C@@H](O)CO [Sorbitol] | not substantially inhibited | 98 | 99 | 101 | 
OC[C@H]1O[C@@](CO)(O[C@H]2O[C@H](CO)[C@@H](O)[C@H](O)[C@H]2O)[C@@H](O)[C@@H]1O [Sucrose] | not substantially inhibited | 96 | 99 | 98 | 
O=C[C@H](O)[C@@H](O)[C@H](O)CO [Xylose] | not substantially inhibited | 98 | 99 | 100 | 
O=[N+]([O-])c1ccc(O[C@@H]2O[C@H](CO)[C@@H](O[C@@H]3O[C@H](CO)[C@@H](O)[C@H](O)[C@H]3O)[C@H](O)[C@H]2O)cc1 [pNP-cellobiose, p-nitrophenyl-β-D-cellobioside] |  |  |  |  | Specific activity (crude AaBGL1 [1]): 9.3 U/mg; Relative activity (crude AaBGL1 [1]): 22%
O=[N+]([O-])c1ccc(O[C@@H]2O[C@H](CO)[C@@H](O)[C@H](O)[C@H]2O)cc1 [pNPG, p-nitrophenyl-β-D-glucoside] |  |  |  |  | Specific activity (crude AaBGL1 [1]): 25.7 U/mg; Relative activity (crude AaBGL1 [1]): 61%
B1 |  |  |  |  | resistance to glucose inhibition (comparison in words) (Glucose inhibition test; glucose 0 to 100 mM): more resistant to glucose inhibition than Novozyme 188; IC50 (Glucose inhibition test; glucose 0 to 100 mM, 37° C., pH 4.5, 10 minutes, read-out: glucose concentration (I50 value) at which 50% inhibition of the enzymatic activity occurs): 25 mM; activity maintained in the presence of glucose (Glucose inhibition test; 20 mM of glucose added): at least 50%; optimal temperature [3]: about 65 °C; thermostability: stable until (Thermostability test): about 60 °C
